In patent US20250270246A1, “LINCOSAMIDES AND USES THEREOF” (President and Fellows of Harvard College, priority 2022, published 2025):
Where a name gives a salt, the structure may show the parent alone. Read-outs that look alike come from different tables or passages of the source.

Experiments:
[1] = rcm bond, Grubbs II (20 mol%)/benzoquinone, toluene
[2] = tested on: A. baumannii ATCC 19606 (HAV#010); assay: MIC by broth microdilution (CLSI); assay type: cell-based; settings: Acinetobacter baumannii, ATCC19606, 24 h, read-out: MIC A. baumannii ATCC 19606
Procedure: (§1) Minimum inhibitory concentrations (MICs) were determined by the broth microdilution method following the Clinical and Laboratory Standards Institute (CLSI) guidelines. Test organisms consisted of standard reference strains from the American Type Culture Collection (ATCC; Manassa, VA, USA) and clinical isolates obtained from JMI Laboratories Inc. (North Liberty, IA, USA), Micromyx repository (MMX; Kalamazoo, MI, USA), and Massachusetts Eye and Ear Hospital (Boston, USA). Before the start of the MIC experiment, standard and test compound stock solutions were prepared in dimethyl sulfoxide (DMSO, Aldrich D2650) at a stock concentration of 2,560 μg/mL. The compound concentration range typically employed for each experiment was 64-0.06 μg/mL (2.5% final DMSO concentration). Iboxamycin was used as a comparator in all experiments. All bacterial strains were sub-cultured on blood agar plates (tryptic soy agar with 5% sheep blood, Hardy Diagnostics) and incubated overnight at 35° C. Organisms were suspended in cation-adjusted Mueller-Hinton broth (CaMHB, BD 212322) and optical density was adjusted to 0.5 McFarland standard. Suspensions were further diluted to obtain a final inoculum of 5×10^5 CFU/mL for broth microdilution experiments. The minimum concentration of compound required to inhibit visible bacterial growth after 24 h of incubation was recorded as the MIC in μg/mL. MICs for P. aeruginosa were recorded in cation-adjusted Mueller-Hinton broth which had been pre-treated with Chelex 100 ion exchange resin according to procedures reported in Ito et al. Antimicrob Agents Chemother (2016) 60 (12), 7396-7401.

[3] = tested on: E. coli ATCC 25922 (HAV#006); assay: MIC by broth microdilution (CLSI); assay type: cell-based; settings: Escherichia coli, ATCC25922, 24 h, read-out: MIC E. coli ATCC 25922
Procedure: as §1

E. coli lptD mutant = assay: MIC by broth microdilution (CLSI); assay type: cell-based; settings: Escherichia coli, 24 h, read-out: MIC E. coli lptD mutant, lptD mutant / ΔlptD mutant; CaMHB, 24 h incubation
Procedure: as §1

E. coli ΔtolC = assay: MIC by broth microdilution (CLSI); assay type: cell-based; settings: Escherichia coli, 24 h, read-out: MIC E. coli ΔtolC, ΔtolC; CaMHB, 24 h incubation
Procedure: as §1

[4] = tested on: E. faecalis ATCC 29212 (HAV#005); assay: MIC by broth microdilution (CLSI); assay type: cell-based; settings: Enterococcus faecalis, ATCC29212, 24 h, read-out: MIC E. faecalis ATCC 29212
Procedure: as §1

E. faecium JMI-990536 = assay: MIC by broth microdilution (CLSI); assay type: cell-based; settings: Enterococcus faecium, JMI990536, 24 h, read-out: MIC E. faecium JMI-990536
Procedure: as §1

K. pneumoniae JMI-991193 = assay: MIC by broth microdilution (CLSI); assay type: cell-based; settings: Klebsiella pneumoniae, JMI991193, 24 h, read-out: MIC K. pneumoniae JMI-991193
Procedure: as §1

[5] = tested on: S. aureus ATCC 29213 (HAV#001); assay: MIC by broth microdilution (CLSI); assay type: cell-based; settings: Staphylococcus aureus, ATCC29213, 24 h, read-out: MIC S. aureus ATCC 29213
Procedure: as §1

S. aureus Clinical (cfr) = assay: MIC by broth microdilution (CLSI); assay type: cell-based; settings: Staphylococcus aureus, 24 h, read-out: MIC S. aureus Clinical (cfr)
Procedure: as §1

S. aureus MMX 3035 = assay: MIC by broth microdilution (CLSI); assay type: cell-based; settings: Staphylococcus aureus, MMX3035, 24 h, read-out: MIC S. aureus MMX 3035
Procedure: as §1

[6] = from C=CCCCCS[C@H]1O[C@H]([C@H](N[S@](=O)C(C)(C)C)[C@H](C)C=C)[C@H](OC(C)=O)[C@H](OC(C)=O)[C@H]1OC(C)=O, 12-membered ring, 2.0 mM, 0.25 h

Structure (SMILES)	MIC [2]	MIC [3]	MIC (E. coli lptD mutant)	MIC (E. coli ΔtolC)	MIC [4]	MIC (E. faecium JMI-990536)	MIC (K. pneumoniae JMI-991193)	MIC [5]	MIC (S. aureus Clinical (cfr))	MIC (S. aureus MMX 3035)	other results
C[C@@H]1/C=C\C[C@@H](CO[Si](C)(C)C(C)(C)C)S[C@H]2O[C@H]([C@@H]1N[S@](=O)C(C)(C)C)[C@H](OC(=O)c1ccccc1)[C@H](OC(=O)c1ccccc1)[C@H]2OC(=O)c1ccccc1	–	–	–	–	–	–	–	–	–	–	ring closure, isolated yield ([1]; from C=CCC(CO[Si](C)(C)C(C)(C)C)S[C@H]1O[C@H]([C@H](N[S@](=O)C(C)(C)C)C(C)C=C)[C@H](OC(=O)c2ccccc2)[C@H](OC(=O)c2ccccc2)[C@H]1OC(=O)c1ccccc1, 10-membered ring, 2.0 mM, 0.25 h): 85%
O=C(N[C@@H]1C/C=C\CCS[C@H]2O[C@H]1[C@H](O)[C@H](O)[C@H]2O)C(F)(F)F	–	–	–	–	–	–	–	–	–	–	ring closure, isolated yield ([1]; from C=CCCS[C@H]1O[C@H]([C@@H](CC=C)NC(=O)C(F)(F)F)[C@H](O)[C@H](O)[C@H]1O, 10-membered ring, 0.4 mM, 0.33 h): 39%
CC(=O)O[C@@H]1[C@H](OC(C)=O)[C@@H](OC(C)=O)[C@@H]2O[C@@H]1[C@H](N[S@](=O)C(C)(C)C)C(C)/C=C/CCCCS2 (stereo partly drawn)	–	–	–	–	–	–	–	–	–	–	ring closure, isolated yield [1, 6]: 64.8%
CC(C)(C)[S@@](=O)N[C@@H]1C/C=C\CC(CO[Si](C)(C)C(C)(C)C)S[C@H]2O[C@H]1[C@H](OC(=O)c1ccccc1)[C@H](OC(=O)c1ccccc1)[C@H]2OC(=O)c1ccccc1 (stereo partly drawn)	–	–	–	–	–	–	–	–	–	–	ring closure, isolated yield ([1]; from C=CCC(CO[Si](C)(C)C(C)(C)C)S[C@H]1O[C@H]([C@@H](CC=C)N[S@](=O)C(C)(C)C)[C@H](OC(=O)c2ccccc2)[C@H](OC(=O)c2ccccc2)[C@H]1OC(=O)c1ccccc1, 10-membered ring, 1.0 mM, 0.25 h): 85%
CC(=O)O[C@@H]1[C@H](OC(C)=O)[C@@H](OC(C)=O)[C@@H]2O[C@@H]1[C@H](N[S@](=O)C(C)(C)C)C(C)/C=C\CCCCS2 (stereo partly drawn)	–	–	–	–	–	–	–	–	–	–	ring closure, isolated yield [1, 6]: 6.3%
C[C@H]1/C=C/CCS[C@H]2O[C@H]([C@@H]1N[S@](=O)C(C)(C)C)[C@H](OC(=O)c1ccccc1)[C@H](OC(=O)c1ccccc1)[C@H]2OC(=O)c1ccccc1	–	–	–	–	–	–	–	–	–	–	ring closure, isolated yield ([1]; from C=CCCS[C@H]1O[C@H]([C@H](N[S@](=O)C(C)(C)C)[C@@H](C)C=C)[C@H](OC(=O)c2ccccc2)[C@H](OC(=O)c2ccccc2)[C@H]1OC(=O)c1ccccc1, 10-membered ring, 0.2 mM, 0.33 h): 6%
CC(C)C[C@@H]1CCO[C@@H]2[C@H](CN[C@@H]2C(=O)N[C@@H]2C/C=C\C[C@@H](F)CS[C@H]3O[C@H]2[C@H](O)[C@H](O)[C@H]3O)C1 [FSA1607022, (4S,5aS,8S,8aR)—N-((1R,4R,9R,10R,11R,12S,13R,Z)-4-fluoro-11,12,13-trihydroxy-14-oxa-2-thiabicyclo[8.3.1]tetradec-6-en-9-yl)-4-isobutyloctahydro-2H-oxepino[2,3-c]pyrrole-8-carboxamide formate salt]	2 µg/mL	2 µg/mL	0.25 µg/mL	0.25 µg/mL	≤ 0.06 µg/mL	1 µg/mL	8 µg/mL	≤ 0.06 µg/mL	4 µg/mL	4 µg/mL	–
CC(C)C[C@@H]1CCO[C@@H]2[C@H](CN[C@@H]2C(=O)N[C@H]2[C@H]3O[C@H](SCCC/C=C\[C@H]2C)[C@H](O)[C@@H](O)[C@H]3O)C1 [FSA1609096, (4S,5aS,8S,8aR)-4-isobutyl-N-((1R,8R,9R,10R,11R,12S,13R,Z)-11,12,13-trihydroxy-8-methyl-14-oxa-2-thiabicyclo[8.3.1]tetradec-6-en-9-yl) octahydro-2H-oxepino[2,3-c]pyrrole-8-carboxamide formate salt]	–	–	0.125 µg/mL	0.25 µg/mL	–	0.125 µg/mL	–	–	–	–	MIC ([2]; HAV#010, ATCC 19606, CaMHB, 24 h incubation): 1 µg/mL; MIC ([3]; HAV#006, ATCC 25922, CaMHB, 24 h incubation): 2 µg/mL; MIC ([4]; HAV#005, ATCC 29212, CaMHB, 24 h incubation): ≤ 0.06 µg/mL; MIC (K. pneumoniae JMI-991193; JMI-991193, CaMHB, 24 h incubation): 8 µg/mL; MIC ([5]; HAV#001, ATCC 29213, CaMHB, 24 h incubation): ≤ 0.06 µg/mL; MIC (S. aureus Clinical (cfr); Clinical (cfr), CaMHB, 24 h incubation): 0.25 µg/mL; MIC (S. aureus MMX 3035; MMX 3035, CaMHB, 24 h incubation): 0.25 µg/mL
C#C[C@@H]1C/C=C\C[C@@H](NC(=O)[C@H]2NC[C@@H]3C[C@H](CC(C)C)CCO[C@H]32)[C@H]2O[C@H](S1)[C@H](O)[C@@H](O)[C@H]2O [FSA1607077, (4S,5aS,8S,8aR)—N-((1R,3S,8R,9R,10R,11S,12R,Z)-3-ethynyl-10,11,12-trihydroxy-13-oxa-2-thiabicyclo[7.3.1]tridec-5-en-8-yl)-4-isobutyloctahydro-2H-oxepino[2,3-c]pyrrole-8-carboxamide formate salt]	8 µg/mL	4 µg/mL	1 µg/mL	1 µg/mL	≤ 0.125 µg/mL	2 µg/mL	16 µg/mL	≤ 0.125 µg/mL	16 µg/mL	4 µg/mL	–
CC(C)C[C@@H]1CCO[C@@H]2[C@H](CN[C@@H]2C(=O)N[C@@H]2C/C=C\C[C@@H](c3cn(-c4ccc(F)cc4)nn3)S[C@H]3O[C@H]2[C@H](O)[C@H](O)[C@H]3O)C1 [FSA1608021, (4S,5aS,8S,8aR)—N-((1R,3S,8R,9R,10R,11S,12R,Z)-3-(1-(4-fluorophenyl)-1H-1,2,3-triazol-4-yl)-10,11,12-trihydroxy-13-oxa-2-thiabicyclo[7.3.1]tridec-5-en-8-yl)-4-isobutyloctahydro-2H-oxepino[2,3-c]pyrrole-8-carboxamide formate salt]	4 µg/mL	1 µg/mL	0.25 µg/mL	1 µg/mL	0.5 µg/mL	0.5 µg/mL	4 µg/mL	0.5 µg/mL	4 µg/mL	2 µg/mL	–
CC(C)C[C@@H]1CCO[C@@H]2[C@H](CN[C@@H]2C(=O)N[C@@H]2C/C=C\C[C@@H](C(F)F)S[C@H]3O[C@H]2[C@H](O)[C@H](O)[C@H]3O)C1 [FSA1607044, (4S,5aS,8S,8aR)—N-((1R,3S,8R,9R,10R,11S,12R,Z)-3-(difluoromethyl)-10,11,12-trihydroxy-13-oxa-2-thiabicyclo[7.3.1]tridec-5-en-8-yl)-4-isobutyloctahydro-2H-oxepino[2,3-c]pyrrole-8-carboxamide formate salt]	8 µg/mL	8 µg/mL	2 µg/mL	0.5 µg/mL	0.125 µg/mL	1 µg/mL	16 µg/mL	0.125 µg/mL	16 µg/mL	2 µg/mL	–
CC(=O)OC[C@@H]1C/C=C\C[C@@H](NC(=O)[C@H]2NC[C@@H]3C[C@H](CC(C)C)CCO[C@H]32)[C@H]2O[C@H](S1)[C@H](O)[C@@H](O)[C@H]2O [FSA1607032, ((1R,3S,8R,9R,10R,11S,12R,Z)-10,11,12-trihydroxy-8-((4S,5aS,8S,8aR)-4-isobutyloctahydro-2H-oxepino[2,3-c]pyrrole-8-carboxamido)-13-oxa-2-thiabicyclo[7.3.1]tridec-5-en-3-yl)methyl acetate formate salt]	32 µg/mL	8 µg/mL	2 µg/mL	0.25 µg/mL	0.5 µg/mL	2 µg/mL	64 µg/mL	0.5 µg/mL	16 µg/mL	4 µg/mL	–
